Measured values taken from ChEMBL document CHEMBL5038626 (Eur J Med Chem, 2022).
In brackets after ≈: the same amount, converted by molar mass. Activity calls are given as the source filed them. The rule behind the calls is not given here.

Tests used:
Topoisomerase IV = Topoisomerase IV (Staphylococcus aureus, UniProt P0C1S7+P0C1U9); test: Inhibition of Staphylococcus aureus topoisomerase 4 assessed as reduction in decatenation using kDNA as substrate incubated for 30 mins by fluorimetric assay; assay type: protein-complex assay
Sequence of Topoisomerase IV (P0C1U9 whole entry): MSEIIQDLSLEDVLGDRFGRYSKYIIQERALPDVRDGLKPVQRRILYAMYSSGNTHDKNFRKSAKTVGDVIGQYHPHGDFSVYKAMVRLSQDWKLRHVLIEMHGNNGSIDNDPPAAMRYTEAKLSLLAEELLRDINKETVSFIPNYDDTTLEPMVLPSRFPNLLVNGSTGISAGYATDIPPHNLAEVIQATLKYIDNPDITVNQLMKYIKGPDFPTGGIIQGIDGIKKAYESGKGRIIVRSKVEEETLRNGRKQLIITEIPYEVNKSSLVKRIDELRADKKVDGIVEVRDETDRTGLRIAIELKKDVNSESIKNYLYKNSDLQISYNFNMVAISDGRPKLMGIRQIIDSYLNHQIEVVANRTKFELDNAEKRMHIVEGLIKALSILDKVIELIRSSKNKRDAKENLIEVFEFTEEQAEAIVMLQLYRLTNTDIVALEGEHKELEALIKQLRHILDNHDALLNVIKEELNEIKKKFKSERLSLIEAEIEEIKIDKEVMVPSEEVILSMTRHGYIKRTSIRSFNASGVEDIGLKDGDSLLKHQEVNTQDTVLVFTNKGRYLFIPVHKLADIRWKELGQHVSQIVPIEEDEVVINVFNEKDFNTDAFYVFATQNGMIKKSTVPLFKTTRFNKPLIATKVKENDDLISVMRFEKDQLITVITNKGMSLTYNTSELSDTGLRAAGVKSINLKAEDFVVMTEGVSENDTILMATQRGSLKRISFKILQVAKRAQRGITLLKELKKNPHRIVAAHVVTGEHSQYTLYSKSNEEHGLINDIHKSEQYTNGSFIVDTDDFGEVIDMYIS
Sequence of Topoisomerase IV (P0C1S7 whole entry): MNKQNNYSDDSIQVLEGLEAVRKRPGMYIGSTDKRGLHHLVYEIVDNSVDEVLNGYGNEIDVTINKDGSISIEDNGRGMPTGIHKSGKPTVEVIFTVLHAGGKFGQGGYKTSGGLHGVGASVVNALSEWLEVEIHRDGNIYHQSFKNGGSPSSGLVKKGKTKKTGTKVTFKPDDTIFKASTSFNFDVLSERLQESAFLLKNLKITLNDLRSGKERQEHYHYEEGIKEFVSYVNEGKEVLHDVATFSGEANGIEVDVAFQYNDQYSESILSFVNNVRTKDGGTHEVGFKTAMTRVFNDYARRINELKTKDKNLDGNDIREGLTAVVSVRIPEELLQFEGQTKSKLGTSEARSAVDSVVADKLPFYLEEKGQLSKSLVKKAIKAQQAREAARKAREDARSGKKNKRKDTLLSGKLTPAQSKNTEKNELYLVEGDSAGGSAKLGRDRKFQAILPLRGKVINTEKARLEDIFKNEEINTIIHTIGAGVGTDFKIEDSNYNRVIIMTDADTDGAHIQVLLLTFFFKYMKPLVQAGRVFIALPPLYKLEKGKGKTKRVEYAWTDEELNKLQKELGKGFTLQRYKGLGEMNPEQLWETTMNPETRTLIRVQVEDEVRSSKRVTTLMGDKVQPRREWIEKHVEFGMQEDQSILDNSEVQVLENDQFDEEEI

DNA gyrase = DNA gyrase (Escherichia coli, UniProt P0AES4+P0AES6); test: Inhibition of Escherichia coli DNA gyrase supercoiling activity using pBR322 as substrate incubated for 30 mins by fluorimetric assay; assay type: protein-complex assay
Staphylococcus aureus = test: Antibacterial activity against Staphylococcus aureus Newman assessed as inhibition of bacterial growth incubated for 24 hrs by broth microdilution method; assay type: functional
Escherichia coli = test: Antibacterial activity against Escherichia coli ATCC 8739 assessed as inhibition of bacterial growth incubated for 24 hrs by broth microdilution method; assay type: functional
[1] = Toxicity in Swiss albino mouse assessed as clonic convulsions at 0.6 mmol/Kg, iv administered as single dose observed for 6 hrs; assay type: organism-based; conditions: in vivo
Mus musculus = test: Effect on GABA protein expression in Swiss albino mouse assessed as decrease in GABA protein expression at 0.6 mmol/Kg, iv administered as single dose by western blot analysis; assay type: functional, organism-based

| SMILES | IC50 (Topoisomerase IV) | IC50 (DNA gyrase) | MIC (Staphylococcus aureus) | MIC (Escherichia coli) | Activity [1] | Activity (Mus musculus) |
| --- | --- | --- | --- | --- | --- | --- |
| O=C(O)c1cn(C2CC2)c2cc(N3CCN(/N=N/c4ccc(S(=O)(=O)Nc5cnc6ccccc6n5)cc4)CC3)c(F)cc2c1=O | 12800 nM | 5860 nM | 5.19 µM (≈ 3.33 µg/mL) | 0.389 µM (≈ 0.25 µg/mL) | – | – |
| O=C(O)c1cn(C2CC2)c2cc(N3CCN(/N=N/c4ccc(S(=O)(=O)Nc5ncccn5)cc4)CC3)c(F)cc2c1=O | 9500 nM | 12800 nM | 0.422 µM (≈ 0.25 µg/mL) | 0.013 µM (≈ 0.0077 µg/mL) | – | – |
| NS(=O)(=O)c1ccc(/N=N/N2CCN(c3cc4c(cc3F)c(=O)c(C(=O)O)cn4C3CC3)CC2)cc1 | 2430 nM | 3560 nM | 0.324 µM (≈ 0.167 µg/mL) | 0.025 µM (≈ 0.0129 µg/mL) | – | – |
| Cc1cc(NS(=O)(=O)c2ccc(/N=N/N3CCN(c4cc5c(cc4F)c(=O)c(C(=O)O)cn5C4CC4)CC3)cc2)no1 | 2580 nM | 1950 nM | 0.839 µM (≈ 0.5 µg/mL) | 1.12 µM (≈ 0.666 µg/mL) | – | – |
| O=C(CCN1CCN(c2cc3c(cc2F)c(=O)c(C(=O)O)cn3C2CC2)CC1)Nc1ccc(S(=O)(=O)Nc2ncccn2)cc1 | 1800 nM | 1990 nM | 1.57 µM (≈ 1 µg/mL) | 2.62 µM (≈ 1.67 µg/mL) | – | – |
| O=C(O)c1cn(C2CC2)c2cc(N3CCNCC3)c(F)cc2c1=O [CIPROFLOXACIN] | – | – | 1.36 µM (≈ 0.45 µg/mL) | 0.255 µM (≈ 0.0845 µg/mL) | – | – |
| NS(=O)(=O)c1ccc(NC(=O)CCN2CCN(c3cc4c(cc3F)c(=O)c(C(=O)O)cn4C3CC3)CC2)cc1 | 600 nM | 1100 nM | 2.99 µM (≈ 1.67 µg/mL) | 0.897 µM (≈ 0.5 µg/mL) | – | – |
| O=C(O)c1cn(C2CC2)c2cc(N3CCN(/N=N/c4ccc(S(=O)(=O)Nc5cncc(Cl)n5)cc4)CC3)c(F)cc2c1=O | 12800 nM | 13000 nM | 1.59 µM (≈ 1 µg/mL) | 1.33 µM (≈ 0.833 µg/mL) | – | – |
| NS(=O)(=O)c1ccc(NC(=O)CN2CCN(c3cc4c(cc3F)c(=O)c(C(=O)O)cn4C3CC3)CC2)cc1 | 3770 nM | 1320 nM | 7.36 µM (≈ 4 µg/mL) | 12.3 µM (≈ 6.67 µg/mL) | – | – |
| O=C(CN1CCN(c2cc3c(cc2F)c(=O)c(C(=O)O)cn3C2CC2)CC1)Nc1ccc(S(=O)(=O)Nc2cnc3ccccc3n2)cc1 | 350 nM | 550 nM | 1.99 µM (≈ 1.33 µg/mL) | 0.744 µM (≈ 0.5 µg/mL) | Non-Toxic | Active |
| CC(C(=O)Nc1ccc(S(=O)(=O)Nc2cnc3ccccc3n2)cc1)N1CCN(c2cc3c(cc2F)c(=O)c(C(=O)O)cn3C2CC2)CC1 (stereo unspecified) | 1210 nM | 1440 nM | 0.729 µM (≈ 0.5 µg/mL) | 1.94 µM (≈ 1.33 µg/mL) | – | – |
| NC(N)=NS(=O)(=O)c1ccc(/N=N/N2CCN(c3cc4c(cc3F)c(=O)c(C(=O)O)cn4C3CC3)CC2)cc1 | 640 nM | 770 nM | 1.8 µM (≈ 1 µg/mL) | 3 µM (≈ 1.67 µg/mL) | Non-Toxic | Active |
| O=C(CN1CCN(c2cc3c(cc2F)c(=O)c(C(=O)O)cn3C2CC2)CC1)Nc1ccc(S(=O)(=O)Nc2cncc(Cl)n2)cc1 | 2290 nM | 900 nM | 1.52 µM (≈ 1 µg/mL) | 2.54 µM (≈ 1.67 µg/mL) | – | – |
| Cc1cc(NS(=O)(=O)c2ccc(NC(=O)CN3CCN(c4cc5c(cc4F)c(=O)c(C(=O)O)cn5C4CC4)CC3)cc2)no1 | 4660 nM | 1330 nM | 3.2 µM (≈ 2 µg/mL) | 7.47 µM (≈ 4.67 µg/mL) | – | – |
| Cc1cc(NS(=O)(=O)c2ccc(NC(=O)CCN3CCN(c4cc5c(cc4F)c(=O)c(C(=O)O)cn5C4CC4)CC3)cc2)no1 | 3910 nM | 6310 nM | 1.04 µM (≈ 0.667 µg/mL) | 5.22 µM (≈ 3.33 µg/mL) | – | – |
| Cc1cc(NS(=O)(=O)c2ccc(NC(=O)C(C)N3CCN(c4cc5c(cc4F)c(=O)c(C(=O)O)cn5C4CC4)CC3)cc2)no1 (stereo unspecified) | 390 nM | 1270 nM | 0.783 µM (≈ 0.5 µg/mL) | 1.04 µM (≈ 0.667 µg/mL) | Non-Toxic | Active |
| CC(C(=O)Nc1ccc(S(N)(=O)=O)cc1)N1CCN(c2cc3c(cc2F)c(=O)c(C(=O)O)cn3C2CC2)CC1 (stereo unspecified) | 6660 nM | 5650 nM | 1.5 µM (≈ 0.834 µg/mL) | 0.897 µM (≈ 0.5 µg/mL) | – | – |
| O=C(CN1CCN(c2cc3c(cc2F)c(=O)c(C(=O)O)cn3C2CC2)CC1)Nc1ccc(S(=O)(=O)Nc2ncccn2)cc1 | 2080 nM | 2870 nM | 1.61 µM (≈ 1 µg/mL) | 1.34 µM (≈ 0.834 µg/mL) | – | – |
| O=C(CCN1CCN(c2cc3c(cc2F)c(=O)c(C(=O)O)cn3C2CC2)CC1)Nc1ccc(S(=O)(=O)Nc2cncc(Cl)n2)cc1 | 440 nM | 1240 nM | 287 µM (≈ 192 µg/mL) | 287 µM (≈ 192 µg/mL) | – | – |
| O=C(CCN1CCN(c2cc3c(cc2F)c(=O)c(C(=O)O)cn3C2CC2)CC1)Nc1ccc(S(=O)(=O)Nc2cnc3ccccc3n2)cc1 | 230 nM | 430 nM | 0.972 µM (≈ 0.667 µg/mL) | 0.608 µM (≈ 0.417 µg/mL) | Non-Toxic | Active |
